Experimental data reported in ChEMBL document CHEMBL5260845, “Flavone-based arylamides as potential anticancers: Design, synthesis and in vitro cell-based/cell-free evaluations” (2020).
Active and inactive are the calls of the source. The rule behind the calls is not given here.

Legend:
HOP-62 = assay: Antiproliferative activity against human HOP-62 cells assessed as cell growth inhibition at 10 uM by SRB assay relative to control; assay type: functional
HOP-92 = assay: Antiproliferative activity against human HOP-92 cells assessed as cell growth inhibition at 10 uM by SRB assay relative to control; assay type: functional
A549 = assay: Antiproliferative activity against human A549 cells assessed as cell growth inhibition at 10 uM by SRB assay relative to control; assay type: functional
M14 = assay: Antiproliferative activity against human M14 cells assessed as cell growth inhibition at 10 uM by SRB assay relative to control; assay type: functional
SK-OV-3 = assay: Antiproliferative activity against human SK-OV-3 cells assessed as inhibition of cell growth at 10 uM by SRB assay relative to control; assay type: functional
MCF7 = assay: Antiproliferative activity against estrogen receptor positive human MCF7 cells assessed as inhibition of cell growth at 10 uM by SRB assay; assay type: functional, cell-based
SNB-75 = assay: Antiproliferative activity against human SNB-75 cells assessed as cell growth inhibition at 10 uM by SRB assay relative to control; assay type: functional
OVCAR-5 = assay: Antiproliferative activity against human OVCAR-5 cells assessed as inhibition of cell growth at 10 uM by SRB assay relative to control; assay type: functional
A498 = assay: Antiproliferative activity against human A498 cells assessed as inhibition of cell growth at 10 uM by SRB assay relative to control; assay type: functional
[1] = molecular target: Receptor-type tyrosine-protein kinase FLT3 (Homo sapiens) (UniProt P36888); assay: Inhibition of FLT3 (unknown origin) at 10 uM by biochemical hotspot kinase assay relative to control
[2] = molecular target: Fibroblast growth factor receptor 3 (Homo sapiens) (UniProt P22607); assay: Inhibition of FGFR3 (unknown origin) at 10 uM by biochemical hotspot kinase assay relative to control
[3] = molecular target: Angiopoietin-1 receptor (Homo sapiens) (UniProt Q02763); assay: Inhibition of TIE2 (unknown origin) at 10 uM by biochemical hotspot kinase assay relative to control
Chain of Angiopoietin-1 receptor (Homo sapiens) (Q02763 whole entry): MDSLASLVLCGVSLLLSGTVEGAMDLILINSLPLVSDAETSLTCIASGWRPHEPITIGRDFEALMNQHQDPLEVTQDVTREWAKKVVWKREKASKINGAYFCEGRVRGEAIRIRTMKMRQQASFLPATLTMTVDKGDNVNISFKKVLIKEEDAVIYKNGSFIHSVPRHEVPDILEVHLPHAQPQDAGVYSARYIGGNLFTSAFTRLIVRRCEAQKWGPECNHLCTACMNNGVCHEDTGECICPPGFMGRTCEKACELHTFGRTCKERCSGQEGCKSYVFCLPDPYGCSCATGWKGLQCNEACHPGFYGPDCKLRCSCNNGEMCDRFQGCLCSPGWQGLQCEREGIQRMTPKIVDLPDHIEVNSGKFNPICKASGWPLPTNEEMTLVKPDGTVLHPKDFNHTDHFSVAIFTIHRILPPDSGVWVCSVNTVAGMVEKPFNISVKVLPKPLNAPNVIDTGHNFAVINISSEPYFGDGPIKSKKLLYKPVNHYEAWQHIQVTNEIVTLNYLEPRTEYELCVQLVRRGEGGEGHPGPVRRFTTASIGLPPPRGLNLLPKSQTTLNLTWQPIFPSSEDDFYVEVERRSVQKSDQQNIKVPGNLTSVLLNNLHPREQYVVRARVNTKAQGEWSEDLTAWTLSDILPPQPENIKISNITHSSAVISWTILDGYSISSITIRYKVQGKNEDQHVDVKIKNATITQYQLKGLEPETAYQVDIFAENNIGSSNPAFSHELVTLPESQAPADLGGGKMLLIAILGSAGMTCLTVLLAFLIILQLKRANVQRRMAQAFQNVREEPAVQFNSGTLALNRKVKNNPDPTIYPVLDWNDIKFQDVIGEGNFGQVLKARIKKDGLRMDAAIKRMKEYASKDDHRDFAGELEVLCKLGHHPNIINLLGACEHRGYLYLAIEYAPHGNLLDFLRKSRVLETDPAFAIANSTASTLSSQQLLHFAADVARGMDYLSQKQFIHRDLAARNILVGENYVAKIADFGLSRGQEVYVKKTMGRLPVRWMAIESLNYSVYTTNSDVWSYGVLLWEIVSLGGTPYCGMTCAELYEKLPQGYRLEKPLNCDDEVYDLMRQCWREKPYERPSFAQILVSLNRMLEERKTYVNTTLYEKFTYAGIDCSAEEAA

[4] = molecular target: Epidermal growth factor receptor (Homo sapiens) (UniProt P00533); assay: Inhibition of EGFR (unknown origin) at 10 uM by biochemical hotspot kinase assay
[5] = molecular target: Insulin receptor (Homo sapiens) (UniProt P06213); assay: Inhibition of INSR (unknown origin) at 10 uM by biochemical hotspot kinase assay
[6] = molecular target: Vascular endothelial growth factor receptor 2 (Homo sapiens) (UniProt P35968); assay: Inhibition of VEGFR2 (unknown origin) at 10 uM by biochemical hotspot kinase assay
[7] = molecular target: Tyrosine-protein kinase Lck (Homo sapiens) (UniProt P06239); assay: Inhibition of LCK (unknown origin) at 10 uM by biochemical hotspot kinase assay relative to control
Chain of Tyrosine-protein kinase Lck (Homo sapiens) (P06239 2-509 limits assumed): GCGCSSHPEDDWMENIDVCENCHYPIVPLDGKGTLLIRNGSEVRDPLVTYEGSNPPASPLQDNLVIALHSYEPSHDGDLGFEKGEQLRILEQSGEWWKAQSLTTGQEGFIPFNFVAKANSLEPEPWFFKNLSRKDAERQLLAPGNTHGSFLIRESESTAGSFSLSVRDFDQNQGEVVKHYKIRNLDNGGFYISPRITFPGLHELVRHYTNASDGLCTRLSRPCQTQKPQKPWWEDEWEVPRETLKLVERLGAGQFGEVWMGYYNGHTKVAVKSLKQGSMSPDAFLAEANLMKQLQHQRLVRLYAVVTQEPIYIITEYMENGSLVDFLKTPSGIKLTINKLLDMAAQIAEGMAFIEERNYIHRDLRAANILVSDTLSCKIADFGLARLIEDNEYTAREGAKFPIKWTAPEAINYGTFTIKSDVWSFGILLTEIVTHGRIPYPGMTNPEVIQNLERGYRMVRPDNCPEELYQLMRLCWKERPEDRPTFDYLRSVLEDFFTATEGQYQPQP

[8] = molecular target: Proto-oncogene tyrosine-protein kinase Src (Homo sapiens) (UniProt P12931); assay: Inhibition of c-Src (unknown origin) at 10 uM by biochemical hotspot kinase assay
Chain of Proto-oncogene tyrosine-protein kinase Src (Homo sapiens) (P12931 2-536 limits assumed): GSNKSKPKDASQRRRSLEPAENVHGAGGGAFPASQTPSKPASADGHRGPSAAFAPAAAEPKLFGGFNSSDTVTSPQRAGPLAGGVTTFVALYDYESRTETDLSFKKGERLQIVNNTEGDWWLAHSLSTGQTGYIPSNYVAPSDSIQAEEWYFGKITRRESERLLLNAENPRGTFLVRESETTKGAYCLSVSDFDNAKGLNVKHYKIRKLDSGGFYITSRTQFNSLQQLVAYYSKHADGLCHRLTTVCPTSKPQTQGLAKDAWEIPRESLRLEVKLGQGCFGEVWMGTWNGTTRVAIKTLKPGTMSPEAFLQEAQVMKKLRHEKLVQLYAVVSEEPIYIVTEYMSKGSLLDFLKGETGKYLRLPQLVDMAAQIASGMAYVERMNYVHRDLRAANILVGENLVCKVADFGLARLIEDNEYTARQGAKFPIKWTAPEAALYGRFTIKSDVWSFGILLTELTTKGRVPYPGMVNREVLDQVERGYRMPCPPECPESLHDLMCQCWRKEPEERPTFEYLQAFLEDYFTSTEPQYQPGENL

[9] = molecular target: Tyrosine-protein kinase Lyn (Homo sapiens) (UniProt P07948); assay: Inhibition of LYN (unknown origin) at 10 uM by biochemical hotspot kinase assay
[10] = molecular target: Tyrosine-protein kinase JAK3 (Homo sapiens) (UniProt P52333); assay: Inhibition of JAK3 (unknown origin) at 10 uM by biochemical hotspot kinase assay
Chain of Tyrosine-protein kinase JAK3 (Homo sapiens) (P52333 whole entry): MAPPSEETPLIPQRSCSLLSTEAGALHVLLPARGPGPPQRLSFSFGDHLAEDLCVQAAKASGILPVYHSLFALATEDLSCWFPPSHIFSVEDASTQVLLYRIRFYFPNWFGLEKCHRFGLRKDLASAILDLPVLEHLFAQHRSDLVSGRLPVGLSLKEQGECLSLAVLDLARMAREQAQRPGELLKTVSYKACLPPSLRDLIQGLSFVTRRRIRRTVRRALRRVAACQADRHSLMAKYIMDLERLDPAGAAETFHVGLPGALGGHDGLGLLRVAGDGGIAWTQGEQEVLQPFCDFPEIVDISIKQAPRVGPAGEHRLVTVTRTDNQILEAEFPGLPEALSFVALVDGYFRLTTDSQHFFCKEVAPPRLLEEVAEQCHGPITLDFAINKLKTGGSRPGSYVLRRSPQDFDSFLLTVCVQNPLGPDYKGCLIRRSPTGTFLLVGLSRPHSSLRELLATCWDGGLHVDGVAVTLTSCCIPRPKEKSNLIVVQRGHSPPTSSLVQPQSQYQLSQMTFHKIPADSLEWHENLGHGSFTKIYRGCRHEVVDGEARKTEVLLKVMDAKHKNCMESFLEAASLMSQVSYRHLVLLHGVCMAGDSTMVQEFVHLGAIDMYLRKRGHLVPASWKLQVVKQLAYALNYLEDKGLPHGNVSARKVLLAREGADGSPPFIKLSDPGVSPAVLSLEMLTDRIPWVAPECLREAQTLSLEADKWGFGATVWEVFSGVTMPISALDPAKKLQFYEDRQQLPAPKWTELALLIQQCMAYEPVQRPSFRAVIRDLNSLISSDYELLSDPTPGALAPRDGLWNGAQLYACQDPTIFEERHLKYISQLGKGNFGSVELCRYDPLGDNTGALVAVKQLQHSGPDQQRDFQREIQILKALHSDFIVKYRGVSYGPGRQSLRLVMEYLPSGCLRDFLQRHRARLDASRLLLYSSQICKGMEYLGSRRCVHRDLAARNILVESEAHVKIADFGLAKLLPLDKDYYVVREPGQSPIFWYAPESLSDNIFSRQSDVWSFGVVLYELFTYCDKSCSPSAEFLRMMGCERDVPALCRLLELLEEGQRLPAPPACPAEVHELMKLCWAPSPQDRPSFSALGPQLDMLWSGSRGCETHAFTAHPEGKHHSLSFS

[11] = molecular target: Mitogen-activated protein kinase kinase kinase 7 (Homo sapiens) (UniProt O43318); assay: Inhibition of TAK1 (unknown origin) at 10 uM by biochemical hotspot kinase assay relative to control
[12] = molecular target: Mitogen-activated protein kinase 7 (Homo sapiens) (UniProt Q13164); assay: Inhibition of ERK5 (unknown origin) at 10 uM by biochemical hotspot kinase assay
Chain of Mitogen-activated protein kinase 7 (Homo sapiens) (Q13164 2-816 limits assumed): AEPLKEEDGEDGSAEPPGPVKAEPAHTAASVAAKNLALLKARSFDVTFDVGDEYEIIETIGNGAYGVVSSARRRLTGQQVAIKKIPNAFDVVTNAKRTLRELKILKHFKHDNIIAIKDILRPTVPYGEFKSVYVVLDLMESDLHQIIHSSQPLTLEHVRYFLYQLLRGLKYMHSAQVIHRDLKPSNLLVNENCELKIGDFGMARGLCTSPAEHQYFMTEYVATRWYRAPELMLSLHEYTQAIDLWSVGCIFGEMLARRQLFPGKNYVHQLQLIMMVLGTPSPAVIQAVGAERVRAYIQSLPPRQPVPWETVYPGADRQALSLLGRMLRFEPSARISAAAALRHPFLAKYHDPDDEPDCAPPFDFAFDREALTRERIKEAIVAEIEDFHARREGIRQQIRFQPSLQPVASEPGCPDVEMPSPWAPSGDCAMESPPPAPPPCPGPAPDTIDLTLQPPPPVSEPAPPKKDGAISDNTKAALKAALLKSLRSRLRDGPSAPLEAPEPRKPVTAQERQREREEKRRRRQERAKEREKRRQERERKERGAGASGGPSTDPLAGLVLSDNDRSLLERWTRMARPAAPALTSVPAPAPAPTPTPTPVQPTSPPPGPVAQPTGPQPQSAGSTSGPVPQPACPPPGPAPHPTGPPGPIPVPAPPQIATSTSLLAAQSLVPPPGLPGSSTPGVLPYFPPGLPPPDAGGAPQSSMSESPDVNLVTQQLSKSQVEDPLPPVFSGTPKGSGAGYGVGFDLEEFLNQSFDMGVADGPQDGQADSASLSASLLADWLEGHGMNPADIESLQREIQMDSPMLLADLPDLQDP

[13] = molecular target: Mitogen-activated protein kinase 15 (Homo sapiens) (UniProt Q8TD08); assay: Inhibition of ERK7 (unknown origin) at 10 uM by biochemical hotspot kinase assay
Chain of Mitogen-activated protein kinase 15 (Homo sapiens) (Q8TD08 whole entry): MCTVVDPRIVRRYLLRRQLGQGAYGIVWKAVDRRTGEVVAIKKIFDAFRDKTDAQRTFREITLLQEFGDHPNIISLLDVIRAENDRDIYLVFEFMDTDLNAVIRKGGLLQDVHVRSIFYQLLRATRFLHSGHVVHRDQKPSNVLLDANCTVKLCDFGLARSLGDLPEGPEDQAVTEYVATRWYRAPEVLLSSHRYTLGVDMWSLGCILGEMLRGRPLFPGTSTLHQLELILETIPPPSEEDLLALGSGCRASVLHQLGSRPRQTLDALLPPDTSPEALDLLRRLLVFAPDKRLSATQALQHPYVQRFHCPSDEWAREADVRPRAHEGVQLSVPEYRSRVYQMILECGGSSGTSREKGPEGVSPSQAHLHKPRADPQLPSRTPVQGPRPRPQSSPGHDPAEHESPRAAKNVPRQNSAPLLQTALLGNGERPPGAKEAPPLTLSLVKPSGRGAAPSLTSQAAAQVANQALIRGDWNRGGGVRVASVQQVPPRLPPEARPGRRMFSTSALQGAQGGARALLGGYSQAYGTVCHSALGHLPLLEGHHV

[14] = molecular target: Homeodomain-interacting protein kinase 1 (Homo sapiens) (UniProt Q86Z02); assay: Inhibition of HIPK1 (unknown origin) at 10 uM by biochemical hotspot kinase assay
[15] = molecular target: Mitogen-activated protein kinase kinase kinase 8 (Homo sapiens) (UniProt P41279); assay: Inhibition of MAP3K8 (unknown origin) at 10 uM by biochemical hotspot kinase assay relative to control
[16] = molecular target: Serine/threonine-protein kinase 3 (Homo sapiens) (UniProt Q13188); assay: Inhibition of MST2 (unknown origin) at 10 uM by biochemical hotspot kinase assay relative to control
[17] = molecular target: Misshapen-like kinase 1 (Homo sapiens) (UniProt Q8N4C8); assay: Inhibition of MINK (unknown origin) at 10 uM by biochemical hotspot kinase assay relative to control
[18] = molecular target: Mitogen-activated protein kinase kinase kinase kinase 4 (Homo sapiens) (UniProt O95819); assay: Inhibition of HGK (unknown origin) at 10 uM by biochemical hotspot kinase assay relative to control
[19] = molecular target: TRAF2 and NCK-interacting protein kinase (Homo sapiens) (UniProt Q9UKE5); assay: Inhibition of TNIK (unknown origin) at 10 uM by biochemical hotspot kinase assay relative to control
[20] = molecular target: Serine/threonine-protein kinase Chk1 (Homo sapiens) (UniProt O14757); assay: Inhibition of CHK1 (unknown origin) at 10 uM by biochemical hotspot kinase assay
[21] = molecular target: Death-associated protein kinase 1 (Homo sapiens) (UniProt P53355); assay: Inhibition of DAPK1 (unknown origin) at 10 uM by biochemical hotspot kinase assay
[22] = molecular target: Serine/threonine-protein kinase 17A (Homo sapiens) (UniProt Q9UEE5); assay: Inhibition of DRAK1 (unknown origin) at 10 uM by biochemical hotspot kinase assay relative to control
[23] = molecular target: Serine/threonine-protein kinase pim-1 (Homo sapiens) (UniProt P11309); assay: Inhibition of PIM1 (unknown origin) at 10 uM by biochemical hotspot kinase assay relative to control
Chain of Serine/threonine-protein kinase pim-1 (Homo sapiens) (P11309 whole entry, looked up): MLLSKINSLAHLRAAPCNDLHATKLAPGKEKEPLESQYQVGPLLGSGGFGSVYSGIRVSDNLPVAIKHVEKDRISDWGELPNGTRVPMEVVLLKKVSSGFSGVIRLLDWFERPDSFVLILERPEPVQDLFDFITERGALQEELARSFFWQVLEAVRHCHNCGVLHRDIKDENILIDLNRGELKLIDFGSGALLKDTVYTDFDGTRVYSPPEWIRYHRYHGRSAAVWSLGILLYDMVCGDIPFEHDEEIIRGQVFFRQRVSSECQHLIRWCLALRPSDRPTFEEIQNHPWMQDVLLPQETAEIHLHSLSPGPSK

[24] = molecular target: Aurora kinase A (Homo sapiens) (UniProt O14965); assay: Inhibition of Aurora A (unknown origin) at 10 uM by biochemical hotspot kinase assay
[25] = molecular target: Serine/threonine-protein kinase PLK2 (Homo sapiens) (UniProt Q9NYY3); assay: Inhibition of PLK2 (unknown origin) at 10 uM by biochemical hotspot kinase assay relative to control
HT-29 [26] = assay: Antiproliferative activity against human HT-29 cells assessed as cell growth inhibition by SRB assay; assay type: functional
HT-29 [27] = assay: Induction of cell cycle arrest in human HT-29 cells assessed as accumulation of cells at G1 phase at 2.5 uM incubated for 24 hrs by PI staining based analysis (reference value: 40.3%); assay type: functional
HT-29 [28] = assay: Induction of cell cycle arrest in human HT-29 cells assessed as accumulation of cells at G1 phase at 5 uM incubated for 24 hrs by PI staining based analysis (reference value: 40.3%); assay type: functional
HT-29 [29] = assay: Induction of cell cycle arrest in human HT-29 cells assessed as reduction in accumulation of cells at S phase at 2.5 to 10 uM incubated for 24 hrs by PI staining based analysis; assay type: functional; conditions: dose 2.5-10 µM

Q: Which results are given for `COc1cc2oc(-c3cccc(C(=O)Nc4ccc(Cl)cc4)c3)cc(=O)c2c(OC)c1OC`?
A: inhibition at 10 µM (HOP-62): 87.2%; inhibition at 10 µM (HOP-92): 87.2%; inhibition at 10 µM (A549): 74.8%; inhibition at 10 µM (M14): 107%; inhibition at 10 µM (SK-OV-3): 56.9%; inhibition (MCF7): Active

Q: Which results are given for `COc1cc2oc(-c3cccc(C(=O)Nc4ccc(C)cc4)c3)cc(=O)c2c(OC)c1OC`?
A: inhibition at 10 µM (SNB-75): > 50%; inhibition at 10 µM (OVCAR-5): 51.8%; inhibition at 10 µM (A498): 94%; inhibition [1]: 10.7%; inhibition [2]: 0.26%; inhibition [3]: 0.46%; inhibition [4]: inactive; inhibition [5]: inactive; inhibition [6]: inactive; inhibition [7]: 0.68%; inhibition [8]: inactive; inhibition [9]: inactive; inhibition [10]: inactive; inhibition [11]: 7.06%; inhibition [12]: inactive; inhibition [13]: inactive; inhibition [14]: inactive; inhibition [15]: 3.13%; inhibition [16]: 14.2%; inhibition [17]: 41%; inhibition [18]: 48.8%; inhibition [19]: 46.1%; inhibition [20]: inactive; inhibition [21]: inactive; inhibition [22]: 3.24%; inhibition [23]: 6.26%; inhibition [24]: inactive; inhibition [25]: 10.5%; GI50 (HT-29 [26]): 2550 nM; Activity (HT-29 [27]): 55.4%; Activity (HT-29 [28]): 59.1%; Activity (HT-29 [29]): Active
